According to PubChem BioAssay AID328 (DTP/NCI, 2004):
Where “and” joins values, the source holds several entries; their conditions need not be identical. Equal entries are not always repeated. Toxic doses and inconclusive results are not listed. The calls were made as follows: active = survival T/C of 150% or more; inactive = T/C below 125% in these data.

Test system: BDF1 mice, P388 leukemia ip, median survival T/C
Assay: NCI In Vivo Anticancer Drug Screen. Data for tumor model P388 Leukemia (intraperitoneal) in B6D2F1 (BDF1) mice
Settings: endpoint: median survival time, higher = longer survival
Procedure, shortened: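 Compound-treated tumour-bearing mice were compared with vehicle-treated controls. Survival was recorded, and the value is the treated-group measurement divided by the control-group measurement (T/C).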

[1] = dose: 100.0 mg/kg/injection, schedule: Q04DX003 (ip), vehicle: Klucel (hydroxypropylcellulose) (HPC)
[2] = dose: 200.0 mg/kg/injection, schedule: Q04DX003 (ip), vehicle: Klucel (hydroxypropylcellulose) (HPC)
[3] = dose: 25.0 mg/kg/injection, schedule: Q04DX003 (ip), vehicle: saline
[4] = dose: 50.0 mg/kg/injection, schedule: Q04DX003 (ip), vehicle: saline
[5] = dose: 100.0 mg/kg/injection, schedule: Q04DX003 (ip), vehicle: saline
[6] = dose: 100.0 mg/kg/injection, schedule: Q04DX003 (ip), vehicle: saline with Tween-80
[7] = dose: 200.0 mg/kg/injection, schedule: Q04DX003 (ip), vehicle: saline with Tween-80
[8] = dose: 400.0 mg/kg/injection, schedule: Q04DX003 (ip), vehicle: saline with Tween-80
[9] = dose: 200.0 mg/kg/injection, schedule: Q04DX003 (ip), vehicle: saline
[10] = dose: 400.0 mg/kg/injection, schedule: Q04DX003 (ip), vehicle: saline
[11] = dose: 25.0 mg/kg/injection, schedule: Q01DX009 (ip), vehicle: saline
[12] = dose: 100.0 mg/kg/injection, schedule: Q01DX009 (ip), vehicle: saline
[13] = dose: 200.0 mg/kg/injection, schedule: Q01DX009 (ip), vehicle: saline
[14] = dose: 100.0 mg/kg/injection, schedule: Q01DX009 (ip), vehicle: Klucel (hydroxypropylcellulose) (HPC)
[15] = dose: 400.0 mg/kg/injection, schedule: Q04DX003 (ip), vehicle: Klucel (hydroxypropylcellulose) (HPC)

Measured: T/C

c1ccc2c3nc(nc2c1)CCCCCCCN3
inactive: [1] 109 % of control | [2] 94 % of control

CCOC(=O)C(OCc1ccccc1)(C(=O)OCC)C(C)C
inactive: [3] 115 % of control | [4] 100 % of control | [5] 105 % of control

NNC(=O)Cc1ccccc1
inactive: dose: 25.0 mg/kg/injection, schedule: Q04DX003 (ip), vehicle: saline sonified 110 % of control | dose: 50.0 mg/kg/injection, schedule: Q04DX003 (ip), vehicle: saline sonified 105 % of control | dose: 100.0 mg/kg/injection, schedule: Q04DX003 (ip), vehicle: saline sonified 110 % of control

CN1COC(OC2CSC2)C(C)(C)C1 (centres undefined)
inactive: [6] 117 % of control | [7] 114 % of control | [8] 115 % of control

O=c1oc(-c2ccccc2)nc2c(Cl)ccc(Cl)c12
inactive: [5] 109 % of control | [9] 104 % of control | [10] 104 % of control

CSc1nc2nc(Cl)c(Cl)nc2[nH]1
inactive: dose: 6.25 mg/kg/injection, schedule: Q01DX009 (ip), vehicle: saline 104 % of control | [11] 96 % of control | [3] 99 % of control | [4] 102 % of control and 109 % of control | [12] 88 % of control | [5] 95 % of control and 103 % of control | [13] 104 % of control | [9] 109 % of control | [10] 103 % of control

COc1ccc(NCCOc2ccccc2Br)cc1
inactive: dose: 100.0 mg/kg/injection, schedule: Q01DX009 (ip), vehicle: other 109 % of control | dose: 400.0 mg/kg/injection, schedule: Q01DX009 (ip), vehicle: other 118 % of control

CC1CCC2(C)CCC3(C)C(=CCC4C5(C)CCC(O)C(C)(C)C5CCC43C)C2C1C (centres undefined)
inactive: dose: 100.0 mg/kg/injection, schedule: Q01DX009 (ip), vehicle: water 90 % of control | dose: 100.0 mg/kg/injection, schedule: Q04DX003 (ip), vehicle: water 90 % of control | dose: 200.0 mg/kg/injection, schedule: Q04DX003 (ip), vehicle: water 90 % of control | dose: 400.0 mg/kg/injection, schedule: Q01DX009 (ip), vehicle: water 90 % of control | dose: 400.0 mg/kg/injection, schedule: Q04DX003 (ip), vehicle: water 90 % of control

COC(=O)C1(C(=O)OC)C2CC(C)=C(C)CC21 (centres undefined)
inactive: dose: 150.0 mg/kg/injection, schedule: Q04DX003 (ip), vehicle: saline 95 % of control | dose: 300.0 mg/kg/injection, schedule: Q04DX003 (ip), vehicle: saline 95 % of control

Cc1ccc(S(=O)(=O)N2CCC(C(=O)O)(c3ccccc3)CC2)cc1
inactive: [6] 100 % of control | [7] 95 % of control | [8] 95 % of control

O=C(O)/C(=C\c1ccccc1Br)c1ccc(C(F)(F)F)cc1[N+](=O)[O-]
inactive: dose: 75.0 mg/kg/injection, schedule: Q01DX001 (ip), vehicle: saline with Tween-80 100 % of control | dose: 150.0 mg/kg/injection, schedule: Q01DX001 (ip), vehicle: saline with Tween-80 95 % of control | dose: 300.0 mg/kg/injection, schedule: Q01DX001 (ip), vehicle: saline with Tween-80 100 % of control

CCCCCC/C=C/C#CCCCCCCCC(=O)O
inactive: dose: 37.5 mg/kg/injection, schedule: Q01DX009 (ip), vehicle: Klucel (hydroxypropylcellulose) (HPC) 106 % of control | dose: 75.0 mg/kg/injection, schedule: Q01DX009 (ip), vehicle: Klucel (hydroxypropylcellulose) (HPC) 100 % of control | dose: 150.0 mg/kg/injection, schedule: Q01DX009 (ip), vehicle: Klucel (hydroxypropylcellulose) (HPC) 109 % of control

O=C(N/N=C/c1ccccc1Cl)c1ccccc1
inactive: [14] 109 % of control | dose: 200.0 mg/kg/injection, schedule: Q01DX009 (ip), vehicle: Klucel (hydroxypropylcellulose) (HPC) 118 % of control | dose: 400.0 mg/kg/injection, schedule: Q01DX009 (ip), vehicle: Klucel (hydroxypropylcellulose) (HPC) 90 % of control

COc1ccccc1NC(=O)Oc1ccc(OCc2ccccc2)cc1
inactive: [6] 95 % of control | [7] 87 % of control | [8] 100 % of control

O=Cc1nc2ccccc2c2ccccc12
inactive: dose: 100.0 mg/kg/injection, schedule: Q01DX001 (ip), vehicle: saline sonified 100 % of control | dose: 200.0 mg/kg/injection, schedule: Q01DX001 (ip), vehicle: saline sonified 100 % of control | dose: 400.0 mg/kg/injection, schedule: Q01DX001 (ip), vehicle: saline sonified 100 % of control

COc1cc2cccccc-2cc1=O
inactive: [1] 110 % of control | [2] 115 % of control | [15] 115 % of control

C=CCNC(=O)Cn1nnc(-c2ccccc2)n1
inactive: dose: 50.0 mg/kg/injection, schedule: Q01DX009 (ip), vehicle: saline with Tween-80 86 % of control | dose: 100.0 mg/kg/injection, schedule: Q01DX009 (ip), vehicle: saline with Tween-80 101 % of control | dose: 200.0 mg/kg/injection, schedule: Q01DX009 (ip), vehicle: saline with Tween-80 107 % of control

COC1OC(n2cnc3ncn(Cc4ccccc4)c3c2=N)C2OC(C)(C)OC12 (centres undefined)
inactive: dose: 100.0 mg/kg/injection, schedule: Q01DX001 (ip), vehicle: saline 110 % of control | dose: 200.0 mg/kg/injection, schedule: Q01DX001 (ip), vehicle: saline 95 % of control

[NH-]C(CCC(N)=O)C(=O)O.[NH-]C(CCCCN)C(=O)O.[Zn+2] (centres undefined)
inactive: dose: 50.0 mg/kg/injection, schedule: Q01DX005 (ip), vehicle: saline 106 % of control

CC1(C)CC(=O)C(C)(C)C(=O)C1
inactive: dose: 3.0 mg/kg/injection, schedule: Q04DX003 (ip), vehicle: saline with Tween-80 95 % of control | dose: 6.0 mg/kg/injection, schedule: Q04DX003 (ip), vehicle: saline with Tween-80 108 % of control | dose: 6.25 mg/kg/injection, schedule: Q01DX009 (ip), vehicle: saline with Tween-80 100 % of control | dose: 12.0 mg/kg/injection, schedule: Q04DX003 (ip), vehicle: saline with Tween-80 100 % of control | dose: 12.5 mg/kg/injection, schedule: Q01DX009 (ip), vehicle: saline with Tween-80 104 % of control | dose: 25.0 mg/kg/injection, schedule: Q04DX003 (ip), vehicle: saline with Tween-80 95 % of control

O=C1COc2ccccc2N1
inactive: dose: 100.0 mg/kg/injection, schedule: Q01DX001 (ip), vehicle: Klucel (hydroxypropylcellulose) (HPC) 113 % of control | dose: 200.0 mg/kg/injection, schedule: Q01DX001 (ip), vehicle: Klucel (hydroxypropylcellulose) (HPC) 100 % of control

CCCC1CC[N-]CC1.CCCC1CC[N-]CC1.CCCC1CC[N-]CC1.CCCC1CC[N-]CC1.O=C([O-])C(=O)[O-].O=C([O-])C(=O)[O-].[Cl][Rh][Cl].[Nb+5].[O-][O-].[O-][O-]
inactive: dose: 12.5 mg/kg/injection, schedule: Q01DX009 (ip), vehicle: saline 112 % of control | [11] 91 % of control and 100 % of control | dose: 50.0 mg/kg/injection, schedule: Q01DX009 (ip), vehicle: saline 87 % of control and 97 % of control and 98 % of control | [12] 87 % of control | [13] 99 % of control | dose: 400.0 mg/kg/injection, schedule: Q01DX009 (ip), vehicle: saline 91 % of control and 94 % of control

O=[N+]([O-])c1cc([N+](=O)[O-])c2nn(-c3ccccc3)[n+]([O-])c2c1
inactive: dose: 25.0 mg/kg/injection, schedule: Q01DX009 (ip), vehicle: Klucel (hydroxypropylcellulose) (HPC) 100 % of control | dose: 50.0 mg/kg/injection, schedule: Q01DX009 (ip), vehicle: Klucel (hydroxypropylcellulose) (HPC) 100 % of control | [14] 90 % of control | [1] 95 % of control | [2] 100 % of control | [15] 100 % of control
